This note sets out measurements from US20240360146A1, “BRUTON'S TYROSINE KINASE AND MUTANT DEGRADER, COMPOSITION AND APPLICATION THEREOF” (HANGZHOU HEALZEN THERAPEUTICS CO., LTD., priority 2021, published 2024).

Data set [1] concerns OCL-LY10 transplanted tumors. In words: Chronic efficacy test, OCL-LY10 subcutaneous transplanted tumor model. Type of data set: in vivo. As to conditions: NOD/SCID mice, intragastric 10 mg/kg, 3 weeks. As for the experimental part:
NOD/SCID mice were subcutaneously inoculated with OCL-LY10 cells to establish a tumor model. When the tumors grew to about 100 mm^3, the mice were administered with drugs in groups. The mode of administration was as follows: the test compound was administered intragastrically at 10 mg/kg; The changes in body weight and tumor size of the mice were measured twice per week. After 3 weeks, the mice were sacrificed by cervical dislocation, and the efficacy of the compounds on transplanted tumors in OCL-LY10 mice was examined.

For a further data set, the system named is OCI-LY10 cells. Put plainly: Inhibitory activity on OCI-LY10 cell proliferation (MTS). Type of data set: cell-based. As to conditions: Homo sapiens, 72 h. Summed up: (§1)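 Cells seeded at 10000/well, treated with compounds from 1000 nM (4-fold, 8 points) for 72 h (OCI-LY10) or 168 h (Mino) at 37° C. MTS added for 2 h, stopped with SDS, absorbance read at 490 and 650 nm; IC50 from dose-response fit.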

The next data set concerns the target T1, BTK-C481S (Homo sapiens, UniProt Q06187, C481S).
T1 construct: expressed in transfected cells; host or cells: HEK293 OE BTK-C481S (overexpressing) cell line
Put plainly: BTK-C481S degradation activity test in HEK293 OE BTK-C481S cells. The class given is cell-based. As to conditions: 24 h incubation, Western blot or Elisa. As for the experimental part:
HEK293 OE BTK-C481S cell line cells were seeded at 500,000 to 1,000,000 cells/well in a 6-well plate. The compounds were diluted to different concentrations and added to the plate, and after 24 h of incubation, the cells were harvested. After lysing the cells, the total protein concentration in each well was determined using the BCA method. The amount of BTK-C481S was determined using Western blot or Elisa method. The amount of undegraded BTKC481S protein at each drug concentration was compared with the amount of BTKC481S protein in the blank control group to calculate the degradation rate. The degradation curve was drawn based on the degradation rate at each concentration, and the half degradation concentration (DC50) was calculated by fitting.
(In general: In western blotting, separated proteins are transferred to a membrane and probed.)

A further data set deals with Mino cells. Put plainly: Inhibitory activity on Mino cell proliferation (MTS). The class given is cell-based. As to conditions: Homo sapiens, 168 h incubation. In a few lines: as §1
Data set [2] in a line: Mouse absorption test (pharmacokinetic properties in mice). As to conditions: intragastric, 30 mg/kg; for DNAUC: DNAUC = AUC/Dose; for Cmax: mouse, plasma, po. The class given is in vivo. On the procedure: […] The blood collection time points for intragastric administration were 0.25, 0.5, 1, 2, 4, 6, 8, and 24 h. 0.5 mL of blood was taken with a capillary tube from the orbit, and placed in an EP tube containing EDTA anticoagulant. The EP tube was shaken gently for mixing uniformly, and centrifuged at 3500 rpm and 4° C. for 10 min. The supernatant, i.e., plasma, was taken. Analysis was performed using LC-MS/MS.

In a further data set the target is T2, BTK (Homo sapiens, UniProt Q06187).
T2 construct: endogenous in cells; host or cells: Mino cells
T2 sequence (Q06187 whole entry): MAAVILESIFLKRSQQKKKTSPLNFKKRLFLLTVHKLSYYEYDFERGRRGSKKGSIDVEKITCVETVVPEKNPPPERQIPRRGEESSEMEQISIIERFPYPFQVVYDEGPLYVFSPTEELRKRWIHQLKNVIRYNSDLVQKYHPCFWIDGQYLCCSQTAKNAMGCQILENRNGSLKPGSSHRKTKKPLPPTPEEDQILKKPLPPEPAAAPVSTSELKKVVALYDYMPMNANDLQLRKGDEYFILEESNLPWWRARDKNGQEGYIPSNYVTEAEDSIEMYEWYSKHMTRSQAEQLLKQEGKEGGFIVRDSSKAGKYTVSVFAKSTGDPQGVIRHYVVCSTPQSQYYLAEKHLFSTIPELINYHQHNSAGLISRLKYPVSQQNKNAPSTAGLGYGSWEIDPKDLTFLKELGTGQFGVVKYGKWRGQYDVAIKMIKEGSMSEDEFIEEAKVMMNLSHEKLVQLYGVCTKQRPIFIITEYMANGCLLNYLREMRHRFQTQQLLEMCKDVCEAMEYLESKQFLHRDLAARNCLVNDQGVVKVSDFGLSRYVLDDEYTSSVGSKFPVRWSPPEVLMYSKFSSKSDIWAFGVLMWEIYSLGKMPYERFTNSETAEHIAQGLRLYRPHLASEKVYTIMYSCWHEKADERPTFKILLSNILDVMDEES
Put plainly: BTK degradation activity test in Mino cells. The class given is cell-based. As to conditions: 16 h incubation, Western blot or Elisa. Summed up:
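Mino cells treated with a concentration series of compound for 16 h, then lysed; total protein by BCA. BTK quantified by Western blot or ELISA, degradation rate calculated against blank control, and DC50 fitted from the degradation curve.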

In a further data set the test system is B cell activation. Put plainly: Test of inhibition of B cell activation in PBMC (Anti-Human IgM stimulation, flow cytometry). Type of data set: cell-based. The note with it: Anti-Human IgM 50 μg/mL, 18 h. On the procedure: The PBMC cell cryopreservation liquid was resuspended in 1640 complete culture medium to an appropriate concentration, and inoculated into a 96-well round-bottom plate at 15×10^4 cells/90 μL/well, and the culture plate was placed in a CO2 incubator for incubation.
The compounds to be tested were formulated into 10 mM stock solutions which were then fold-serially diluted with DMSO, and then diluted with 1640 complete culture liquid to make the concentration 100 times of the final concentration. The compound diluent was added into the cell solution in each well at 1 μL/well and shaken gently. 2 duplicate wells were set up for each concentration. The dosed cell plate was placed in a 37° C. incubator with 5% carbon dioxide and incubated for 1 h.
3. The dosed cell culture plate was taken and 10 μL of Anti-Human IgM-UNLB was added into the well corresponding to the compound to be tested; in 2 groups of cell blank wells, only 10 μL of Anti-Human IgM-UNLB was added; and in 3 groups of cell blank wells, no reagents and antibodies were added. The final concentration of Anti-Human IgM-UNLB was 50 μg/mL.
4. The loaded cell culture plate was placed in a 37° C. incubator with 5% carbon dioxide and incubated for 18 h. Total system: 90 μL PBMC+1 μL compound+10 μL Anti-Human IgM-UNLB
5. Samples were collected and stained, and the cells were analyzed using flow cytometry to obtain data. (When analyzed using flow cytometry, lymphocytes were gated).
For orientation: In flow cytometry, cells or beads pass a laser one at a time.

Data set [3] is described as follows: Beagle dog absorption test (PK in dogs). The class given is in vivo. As to conditions: plasma, po, intragastric, 10 mg/kg. On the procedure:
Beagle dogs were used as experimental animals, and drugs were administered intragastrically at 10 mg/kg. The blood collection time points for intragastric administration were 0, 0.25, 0.5, 1, 2, 4, 6, 8, 10, 12, and 24 h. 1.0 mL of blood was collected from the jugular vein, placed in an EDTAK2 centrifuge tube, and placed on an ice bath, centrifuged at 5000 rpm and 4° C. for 10 min to obtain the supernatant, i.e., plasma. 0.1 ml of the plasma was taken for analysis by LC-MS/MS.

Data set [4] in a line: Stability of compounds in human liver microsome. Type of data set: in vitro ADME. The note with it: human liver microsomes, NADPH, 37° C., sampling 0-120 min; read-out: Human liver microsome T1/2. Summed up:
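Compound incubated at 37° C with human liver microsomes (1 mg in 1 mL PBS) plus NADPH. Samples taken at 0, 15, 30, 60 and 120 min, quenched into internal standard solution and analysed by LC/MS; metabolism calculated from peak area.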
For orientation: Liver microsomes are a subcellular fraction often used to study metabolism.

T1 sequence (Q06187 whole entry C481S): as the sequence (Q06187 whole entry) above, with C481S counted along it

A word on the IC50: it is the concentration that gives 50% inhibition. A high value points to weaker potency. One may read the DC50 as the midpoint of the concentration-degradation curve. Read a low DC50 as degradation at low concentration. In general, Cmax refers to the peak of the concentration-time curve. For `CN1CCN([C@@H]2CCCN(c3nnc(C(N)=O)c(Nc4ccc(C5CCN(CC6CCN(c7ccc8c(c7)C(=O)N(C7CCC(=O)NC7=O)C8=O)CC6)CC5)cc4)n3)C2)C1=O` (stereo partly drawn) [Compound 123, 5-((4-(1-((1-(2-(2,6-dioxopiperidin-3-yl)-1,3-dioxoisoindolin-5-yl)piperidin-4-yl)methyl)piperidin-4-yl)phenyl)amino)-3-((R)-3-(3-methyl-2-oxoimidazolin-1-yl)piperidin-1-yl)-1,2,4-triazin-6-carboxamide], in data set [1], the “TGI (%)” value is recorded as 95.66%. Besides, the IC50 worked out at 0.2 nM in the data set with OCI-LY10 cells and 2.11 nM in the data set with Mino cells. Moreover, the 50% degradation concentration (DC50) was less than 10 nM on BTK-C481S and less than 1 nM on BTK. The same compound registered a DNAUC in data set [2] of 1920 ng/ml*h/mpk. This compound also showed a Cmax in data set [2] (class symbols) greater than 6000 ng/mL.

A word on the AUC: it is the area under the concentration-time curve, a measure of exposure. Low values mean less exposure, high ones more exposure. On to `NC(=O)c1ncc(N2CCCCC2)nc1Nc1ccc(C2CCN(C[C@H]3CCN(c4ccc5c(c4)C(=O)N(C4CCC(=O)NC4=O)C5=O)C3)CC2)cc1` (some centres unmarked) [Compound c, reference compound], for which, in [1], the “TGI (%)” value is 67.59%. In addition, the figures for the Inhibition ratio % in the data set on B cell activation (concentration 0.16 nM) and in the data set on B cell activation (concentration 0.80 nM) were 10.2% and 16.3%, respectively. In addition, in [3], the area under the curve (AUC) was determined as 246 ng·h/mL.

Regarding `Cc1cc(N2CCC(CN3CCN(c4ccc(Nc5nc(N6CCC[C@@H](N7CCN(C)C7=O)C6)nnc5C(N)=O)cc4F)CC3)CC2)ccc1N1CCC(=O)NC1=O` [Compound 257, (R)-5-((4-(4-((1-(4-(2,4-dioxotetrahydropyrimidin-1(2H)-yl)-3-methylphenyl)piperidin-4-yl)methyl)piperazin-1-yl)-3-fluorophenyl)amino)-3-(3-(3-methyl-2-oxoimidazolidin-1-yl)piperidin-1-yl)-1,2,4-triazin-6-carboxamide], the “TGI (%)” value in [1] is given as 98.74%. In addition, the concentration for half-maximal inhibition (IC50) in the data set with OCI-LY10 cells is 0.12 nM; with Mino cells, less than 0.26 nM. Moreover, the half-life at 0.97 µg/mL in [4] is greater than 30 min. The DC50 was less than 10 nM on BTK-C481S and less than 1 nM on BTK. Moreover, the Inhibition ratio % in the data set on B cell activation (concentration 0.16 nM) and in the data set on B cell activation (concentration 0.80 nM) was 100% throughout. For the same compound, the AUC in [3] is 6590 ng·h/mL.

With `C=CC(=O)N1CCC[C@@H](n2nc(-c3ccc(Oc4ccccc4)cc3)c3c(N)ncnc32)C1` [Ibrutinib], the “TGI (%)” value in data set [1] came out at 50.72%.

For `CN1CCN([C@@H]2CCCN(c3nnc(C(N)=O)c(Nc4ccc(N5CCN(C[C@@H]6CCN(c7ccc8c(c7)C(=O)N(C7CCC(=O)NC7=O)C8=O)C6)CC5)c(F)c4)n3)C2)C1=O` (stereo partly drawn) [Compound 131, 5-((4-(4-(((3S)-1-(2-(2,6-dioxopiperidin-3-yl)-1,3-dioxoisoindolin-5-yl)pyrrolidin-3-yl)methyl)piperazin-1-yl)-3-fluorophenyl)amino)-3-((R)-3-(3-methyl-2-oxoimidazolin-1-yl)piperidin-1-yl)-1,2,4-triazin-6-carboxamide], the “TGI (%)” value in data set [1] came out at 96.67%. In addition, the results for the IC50 in the data set on OCI-LY10 cells and in the data set on Mino cells were 0.9 nM and 3.61 nM, respectively. For the same compound, the half-life at 0.97 µg/mL in data set [4] is greater than 30 min. Besides, the DC50 on BTK-C481S was less than 10 nM; at BTK it was less than 1 nM. Further, the Inhibition ratio % in the data set on B cell activation (concentration 0.16 nM) stood at 60.8%; in the data set with B cell activation (concentration 0.80 nM) it was 100%. The compound also gave a DNAUC in [2] of 3614 ng/ml*h/mpk. In addition, in data set [2], the highest level (Cmax) was 6190 ng/mL.

For `CN1CCN([C@@H]2CCCN(c3nnc(C(N)=O)c(Nc4ccc(N5CCN(C[C@H]6CCN(c7ccc8c(c7)C(=O)N(C7CCC(=O)NC7=O)C8=O)C6)CC5)c(F)c4)n3)C2)C1=O` (stereo partly drawn) [Compound 132, 5-((4-(4-(((3R)-1-(2-(2,6-dioxopiperidin-3-yl)-1,3-dioxoisoindolin-5-yl)pyrrolidin-3-yl)methyl)piperazin-1-yl)-3-fluorophenyl)amino)-3-((R)-3-(3-methyl-2-oxoimidazolin-1-yl)piperidin-1-yl)-1,2,4-triazin-6-carboxamide], in the data set with OCI-LY10 cells, the IC50 is less than 1 nM. In data set [4], the half-life at 0.97 µg/mL was greater than 30 min. The IC50 in the data set with Mino cells worked out at 2.55 nM. In [2], this compound displayed a DNAUC of 2430 ng/ml*h/mpk and a Cmax of 7800 ng/mL. In addition, the AUC in data set [3] was determined as 1690 ng·h/mL. This compound registered a DC50 at BTK of less than 1 nM.
